Reference: US20140296216A1, “PYRIMIDO[4,5-D]PYRIMIDINYL COMPOUNDS, PHARMACEUTICAL COMPOSITIONS AND USES THEREOF” (GUANGZHOU INSTITUTE OF BIOMEDICINE AND HEALTH, CHINESE …, priority 2011, published 2014)

Key:
H1975 cell [1] = assay: Effect on cell apoptosis by Annexin V; type: cell-based; details: PE-Annexin V, 24, 48 h; FIG. 29
Protocol: Detecting the effect of the compounds on cell apoptosis by Annexin V: 8×10^5 cells/well, NCI-H820, A431, HCC827, EGFR E746-A750 deletion, H1975 were plated in 6-well plates, and 24 h later, treated with the compounds at various concentrations and a control (1% DMSO) for 24, 48 h. Growth medium was collected and cells were trypsined and collected correspondingly to the medium. Suspension (500 g) was centrifuged for 10 minutes. The cells were re-suspended in PBS to get a suspension and then the suspension (500 g) centrifuged for 10 min; this step was repeated twice. The cells were re-suspended in binding buffer, 5×10^5-1×10^6 cells/mL. PE-Annexin V (556421, BD Pharmingen) […] respectively. The cells were incubated for 15 min at RT in the dark. The samples were detected with FACS Calibur flow cytometer (Becton Dickinson).

EGFRWT = EGFRWT (Homo sapiens, UniProt P00533); assay: In vitro enzymatic activity assay (Z'-LYTE), wild type EGFR; type: biochemical; details: Z'-LYTE FRET peptide assay; read-out: EGFRWT kinase activity (IC50)
EGFRWT, sequence (P00533 25-1210): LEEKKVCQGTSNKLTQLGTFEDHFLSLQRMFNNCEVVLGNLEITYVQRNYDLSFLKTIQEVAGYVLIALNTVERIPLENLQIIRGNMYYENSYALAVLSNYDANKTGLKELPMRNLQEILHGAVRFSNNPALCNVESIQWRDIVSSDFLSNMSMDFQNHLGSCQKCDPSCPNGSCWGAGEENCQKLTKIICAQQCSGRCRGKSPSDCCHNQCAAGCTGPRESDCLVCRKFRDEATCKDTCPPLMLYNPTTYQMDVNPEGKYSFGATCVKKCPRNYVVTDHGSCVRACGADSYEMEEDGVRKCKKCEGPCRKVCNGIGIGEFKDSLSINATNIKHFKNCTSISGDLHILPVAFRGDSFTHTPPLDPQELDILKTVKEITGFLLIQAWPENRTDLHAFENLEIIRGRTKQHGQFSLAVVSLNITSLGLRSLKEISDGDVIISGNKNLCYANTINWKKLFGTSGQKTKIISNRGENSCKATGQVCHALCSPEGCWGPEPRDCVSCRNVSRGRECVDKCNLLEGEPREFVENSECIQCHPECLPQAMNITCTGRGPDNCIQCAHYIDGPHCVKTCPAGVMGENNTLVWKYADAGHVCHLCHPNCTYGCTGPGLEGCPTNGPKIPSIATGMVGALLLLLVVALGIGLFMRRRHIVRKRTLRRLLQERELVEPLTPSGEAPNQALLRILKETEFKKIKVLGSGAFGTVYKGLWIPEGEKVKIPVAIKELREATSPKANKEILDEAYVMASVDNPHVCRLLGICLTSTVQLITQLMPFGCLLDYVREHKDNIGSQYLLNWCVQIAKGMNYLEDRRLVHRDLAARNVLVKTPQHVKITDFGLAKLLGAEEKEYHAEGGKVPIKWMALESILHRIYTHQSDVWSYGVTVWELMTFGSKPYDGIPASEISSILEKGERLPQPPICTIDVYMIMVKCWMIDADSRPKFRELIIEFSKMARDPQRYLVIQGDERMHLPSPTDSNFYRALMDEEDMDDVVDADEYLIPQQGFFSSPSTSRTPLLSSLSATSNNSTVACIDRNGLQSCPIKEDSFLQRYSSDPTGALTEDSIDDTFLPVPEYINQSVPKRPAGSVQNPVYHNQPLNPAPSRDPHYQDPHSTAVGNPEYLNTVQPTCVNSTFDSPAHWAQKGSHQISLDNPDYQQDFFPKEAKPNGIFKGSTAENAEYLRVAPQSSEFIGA
Outline: (§1)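 Z'-LYTE FRET coupled-enzyme format: kinase phosphorylates FRET peptide substrate, then after one hour a site-specific protease cleaves non-phosphorylated peptide. After another hour, excitation at 400 nm and emission read at 445 and 520 nm.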

[2] = test system: HCC827 (lung cancer cells, EGFR E746-A750 deletion); assay: Cell proliferation by MTT, HCC827; type: cell-based; details: Homo sapiens, HCC827, read-out: HCC827 50% inhibitory concentration (IC50), 72 h
[3] = test system: A431 (Human epidermal carcinoma, EGFR high expression); assay: Cell proliferation by MTT, A431; type: cell-based; details: A-431, read-out: A431 50% inhibitory concentration (IC50), 72 h
EGFRL861Q = EGFRL861Q (Homo sapiens, UniProt P00533, L861Q); assay: In vitro enzymatic activity assay (Z'-LYTE), EGFR L861Q; type: biochemical; details: Z'-LYTE FRET peptide assay; read-out: EGFRL861Q kinase activity (IC50)
EGFRL861Q, sequence (P00533 25-1210 L861Q): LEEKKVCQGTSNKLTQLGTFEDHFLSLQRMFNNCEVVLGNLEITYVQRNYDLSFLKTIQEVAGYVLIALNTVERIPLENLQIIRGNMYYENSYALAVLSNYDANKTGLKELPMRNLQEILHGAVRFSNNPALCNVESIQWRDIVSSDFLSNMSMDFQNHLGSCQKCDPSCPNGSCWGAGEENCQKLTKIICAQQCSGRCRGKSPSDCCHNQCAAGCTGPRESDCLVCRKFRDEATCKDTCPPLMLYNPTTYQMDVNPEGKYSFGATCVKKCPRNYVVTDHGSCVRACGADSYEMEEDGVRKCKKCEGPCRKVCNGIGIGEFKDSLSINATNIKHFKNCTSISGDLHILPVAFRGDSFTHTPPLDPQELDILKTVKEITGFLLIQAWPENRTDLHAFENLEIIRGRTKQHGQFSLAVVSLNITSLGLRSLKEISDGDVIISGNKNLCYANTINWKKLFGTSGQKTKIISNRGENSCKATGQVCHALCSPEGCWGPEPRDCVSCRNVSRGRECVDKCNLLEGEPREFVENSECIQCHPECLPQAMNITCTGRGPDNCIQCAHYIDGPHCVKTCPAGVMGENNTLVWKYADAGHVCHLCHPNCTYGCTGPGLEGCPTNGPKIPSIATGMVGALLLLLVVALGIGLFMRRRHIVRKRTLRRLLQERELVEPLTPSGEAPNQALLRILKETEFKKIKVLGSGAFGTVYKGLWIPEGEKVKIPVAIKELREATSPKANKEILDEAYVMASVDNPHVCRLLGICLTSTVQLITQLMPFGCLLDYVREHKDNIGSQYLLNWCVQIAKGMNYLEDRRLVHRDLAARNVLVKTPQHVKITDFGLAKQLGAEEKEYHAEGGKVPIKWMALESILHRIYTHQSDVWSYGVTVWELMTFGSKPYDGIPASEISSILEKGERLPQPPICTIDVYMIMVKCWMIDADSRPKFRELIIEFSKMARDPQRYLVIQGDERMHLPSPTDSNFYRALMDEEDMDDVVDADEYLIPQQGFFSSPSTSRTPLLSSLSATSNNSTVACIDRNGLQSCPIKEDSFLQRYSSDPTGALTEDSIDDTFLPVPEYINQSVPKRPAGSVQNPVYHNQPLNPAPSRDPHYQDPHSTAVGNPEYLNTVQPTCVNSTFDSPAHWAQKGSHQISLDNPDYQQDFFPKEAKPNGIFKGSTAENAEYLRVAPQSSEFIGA
Outline: as §1

EGFRL858R = EGFRL858R (Homo sapiens, UniProt P00533, L858R); assay: In vitro enzymatic activity assay (Z'-LYTE), EGFR L858R; type: biochemical; details: Z'-LYTE FRET peptide assay; read-out: EGFRL858R kinase activity (IC50)
Outline: as §1

H1975 cell [4] = assay: Effect on cell cycle by PI; type: cell-based; details: PI staining, 24, 48 h; FIGS. 27, 28
Protocol: Detecting the effect of the compounds on cell cycle by PI: 8×10^5 cells/well, NCI-H820, A431, HCC827, EGFR E746-A750 deletion, H1975 were plated in 6-well plates, and 24 h later, treated with the compounds at various concentrations and a control (1% DMSO) for 24, 48 h. Cells were trypsined, collected and then centrifuged for 10 minutes. The cells were re-suspended in PBS to get a suspension and then the suspension (500 g) centrifuged for 10 min; this step was repeated twice: firstly 300 uL pre-cooled PBS was added and mixed, then 700 uL pre-cooled (i.e. −20° C.) anhydrous ethanol was added and mixed, placed in −20° C. for 24 h. The mixture was 5000 rpm centrifuged for 2 min, washed by PBS twice, resuspended with 200 uL PBS (it needs to ensure the cell concentration as about […]), added RNase to achieve the final concentration of 50 ug/mL, and […] at 37° C. for 30 min. The mixture was added PI achieve the final concentration of 10 ug/mL, dyed in dark for 30 min, and then detected within 1 h.

EGFRL858R + T790M = EGFRL858R + T790M (Homo sapiens, UniProt P00533, L858R/T790M); assay: In vitro enzymatic activity assay (Z'-LYTE), EGFR L858R + T790M; type: biochemical; details: Z'-LYTE FRET peptide assay; read-out: EGFRL858R + T790M kinase activity (IC50)
EGFRL858R + T790M, sequence (P00533 25-1210 T790M/L858R): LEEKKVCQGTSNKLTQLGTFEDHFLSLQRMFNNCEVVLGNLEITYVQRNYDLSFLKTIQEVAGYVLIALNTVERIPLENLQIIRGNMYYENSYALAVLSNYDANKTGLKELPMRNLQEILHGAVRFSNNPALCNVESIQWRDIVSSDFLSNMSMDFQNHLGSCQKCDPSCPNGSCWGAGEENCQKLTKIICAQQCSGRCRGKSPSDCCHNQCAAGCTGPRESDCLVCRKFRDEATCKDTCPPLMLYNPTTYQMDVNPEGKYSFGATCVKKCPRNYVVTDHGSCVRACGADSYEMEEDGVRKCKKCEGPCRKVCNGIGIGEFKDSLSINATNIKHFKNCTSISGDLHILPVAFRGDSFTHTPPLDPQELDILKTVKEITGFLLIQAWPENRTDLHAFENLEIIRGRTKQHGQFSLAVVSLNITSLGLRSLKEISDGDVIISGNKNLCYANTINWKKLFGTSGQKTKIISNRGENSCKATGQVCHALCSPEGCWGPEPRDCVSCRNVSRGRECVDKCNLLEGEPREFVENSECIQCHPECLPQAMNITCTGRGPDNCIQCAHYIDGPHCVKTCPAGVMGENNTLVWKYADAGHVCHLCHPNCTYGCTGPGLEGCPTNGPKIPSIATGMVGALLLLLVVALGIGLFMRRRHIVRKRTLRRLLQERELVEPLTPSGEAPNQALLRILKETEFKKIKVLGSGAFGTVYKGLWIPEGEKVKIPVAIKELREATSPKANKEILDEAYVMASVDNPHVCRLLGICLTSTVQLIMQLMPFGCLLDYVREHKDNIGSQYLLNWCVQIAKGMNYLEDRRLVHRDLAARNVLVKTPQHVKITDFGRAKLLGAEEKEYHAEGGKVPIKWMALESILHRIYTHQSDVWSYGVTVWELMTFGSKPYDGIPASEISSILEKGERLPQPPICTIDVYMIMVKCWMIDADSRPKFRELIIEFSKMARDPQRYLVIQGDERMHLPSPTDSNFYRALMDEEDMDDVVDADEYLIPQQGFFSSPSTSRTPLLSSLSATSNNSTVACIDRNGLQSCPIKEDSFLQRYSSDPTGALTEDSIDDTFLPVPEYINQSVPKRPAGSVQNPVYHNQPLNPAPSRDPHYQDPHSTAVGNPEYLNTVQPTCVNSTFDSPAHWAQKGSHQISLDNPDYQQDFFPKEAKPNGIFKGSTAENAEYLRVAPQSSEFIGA
Outline: as §1

[5] = test system: EGFR phosphorylation in H1975 Cell; assay: Western Blot, cell signaling pathway in H1975 cell; type: cell-based; details: FIG. 30
Protocol: Conventional Western Blot (Immune blotting method) was used, wherein the method includes four steps: sample preparation, electrophoretic separation, film transfer of protein, and immuno hybridization and color display (protein detection). Sample preparation • 1. culturing cells or treating the cells with drugs; • 2. discarding mediums, washing the cells with 1×PBS twice to completely remove the mediums; • 3. adding 1×SDS sample buffer (6-well plate, 100 μl/w or 75 cm^2 plate, 500-1000 μl/bottle), scrapping the cells and transferring them to Ep tube; • 4. ultrasonic shearing DNA for 10-15 seconds to reduce the viscosity of the sample; • 5. boiling the sample for 5 minutes; • 6. centrifuging 12000 g sample for 5 minutes and taking the supernatant. […]

EGFR T790M kinase = biological target: T1, EGFR T790M kinase (Homo sapiens, UniProt P00533, T790M); assay: In vitro enzymatic activity assay (Z'-LYTE), EGFR T790M; type: biochemical; details: Z'-LYTE FRET peptide assay; read-out: EGFRT790M kinase activity (IC50)
T1 construct: purchased invitrogen PV4803
T1 sequence (P00533 25-1210 T790M): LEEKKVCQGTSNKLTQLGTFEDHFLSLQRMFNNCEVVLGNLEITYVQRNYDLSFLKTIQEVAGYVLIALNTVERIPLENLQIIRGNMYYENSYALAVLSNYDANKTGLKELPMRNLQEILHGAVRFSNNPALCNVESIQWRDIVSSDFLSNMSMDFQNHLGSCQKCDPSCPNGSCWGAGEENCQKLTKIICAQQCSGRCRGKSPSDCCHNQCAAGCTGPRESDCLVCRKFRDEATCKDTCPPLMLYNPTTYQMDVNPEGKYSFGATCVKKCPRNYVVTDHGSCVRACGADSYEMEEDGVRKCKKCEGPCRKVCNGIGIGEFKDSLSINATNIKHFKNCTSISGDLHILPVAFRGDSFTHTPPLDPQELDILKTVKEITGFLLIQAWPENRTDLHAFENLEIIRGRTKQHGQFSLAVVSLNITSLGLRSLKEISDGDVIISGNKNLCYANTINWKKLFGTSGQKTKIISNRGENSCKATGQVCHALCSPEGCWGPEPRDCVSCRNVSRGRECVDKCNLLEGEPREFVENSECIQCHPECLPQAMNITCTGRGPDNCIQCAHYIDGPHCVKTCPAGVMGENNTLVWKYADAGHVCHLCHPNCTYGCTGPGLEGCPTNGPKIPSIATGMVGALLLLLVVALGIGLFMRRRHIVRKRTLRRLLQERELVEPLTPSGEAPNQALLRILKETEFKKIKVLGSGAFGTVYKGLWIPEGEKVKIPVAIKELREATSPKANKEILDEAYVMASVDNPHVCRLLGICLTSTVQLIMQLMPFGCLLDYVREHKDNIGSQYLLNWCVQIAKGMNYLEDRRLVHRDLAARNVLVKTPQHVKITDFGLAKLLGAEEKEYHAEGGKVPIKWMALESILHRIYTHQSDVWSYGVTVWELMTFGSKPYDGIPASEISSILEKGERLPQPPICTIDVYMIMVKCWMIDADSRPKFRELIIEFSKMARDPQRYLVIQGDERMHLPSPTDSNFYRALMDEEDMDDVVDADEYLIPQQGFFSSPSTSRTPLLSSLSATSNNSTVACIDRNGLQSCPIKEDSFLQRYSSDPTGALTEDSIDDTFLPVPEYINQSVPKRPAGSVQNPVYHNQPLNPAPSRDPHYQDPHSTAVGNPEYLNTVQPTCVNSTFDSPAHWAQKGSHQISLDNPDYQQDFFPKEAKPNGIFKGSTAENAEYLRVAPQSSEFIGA
Outline: as §1

[6] = test system: H1975 (lung cancer cells, EGFR L858R&T790M); assay: Cell proliferation by MTT, H1975; type: cell-based; details: Homo sapiens, NCI-H1975, read-out: H1975 50% inhibitory concentration (IC50), 72 h
[7] = test system: NCI-H820 (lung cancer cells); assay: Cell proliferation by MTT, NCI-H820; type: cell-based; details: NCI-H820, read-out: NCI-H820 50% inhibitory concentration (IC50), 72 h

IC50 (EGFRWT): ≤ 10 nM
IC50 [2]: 52 nM
IC50 [3]: 2930 nM
IC50 (EGFRL861Q): ≤ 10 nM
IC50 (EGFRL858R): ≤ 10 nM
IC50 (EGFRL858R + T790M): ≤ 10 nM
IC50 (EGFR T790M kinase): ≤ 10 nM
IC50 [6]: 85 nM
IC50 [7]: > 100000 nM
Structure (SMILES): C=CC(=O)Nc1cccc(N2C(=O)N(C)Cc3cnc(Nc4ccc(N5CCN(C)CC5)cc4OC)nc32)c1 [C-EGF06, N-(3-(7-(2-methoxy-4-(4-methylpiperazin-1-yl)phenylamino)-3-methyl-2-oxo-3,4-dihydropyrimido[4,5-d]pyrimidin-1(2H)-yl)phenyl)acrylamide]
cell apoptosis (H1975 cell [1]): significantly induce
cell cycle arrest (H1975 cell [4]): significantly induce
EGFR phosphorylation arrest [5]: significantly induce EGFR phosphorylation arrest
downstream pathway phosphorylation [5]: further block
